In PubChem BioAssay (NCI):
Where “and” joins values, the source holds several entries; their conditions need not be identical. Equal values may be shown once.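 Five compound concentrations were applied to cells in 96-well plates for 48 hours; endpoints were derived by simple linear interpolation of the resulting dose-response curve. Here, GI50 denotes the concentration required for 50% inhibition of growth. TGI marks complete inhibition of growth.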

Key:
Test in all cases: NCI-60 cell line screen, 48 h
CAKI-1 renal = test system: CAKI-1 renal
HCT-116 colon = test system: HCT-116 colon
HL-60(TB) leukemia = test system: HL-60(TB) leukemia
HS 578T breast = test system: HS 578T breast
MDA-MB-435 = test system: MDA-MB-435
MOLT-4 leukemia = test system: MOLT-4 leukemia
NCI-H460 lung = test system: NCI-H460 lung
PC-3 prostate = test system: PC-3 prostate
RPMI-8226 leukemia = test system: RPMI-8226 leukemia
SW-620 colon = test system: SW-620 colon

Structure (SMILES) | TGI (CAKI-1 renal) | TGI (HCT-116 colon) | TGI (HL-60(TB) leukemia) | GI50 (HS 578T breast) | TGI (HS 578T breast) | TGI (MDA-MB-435) | TGI (MOLT-4 leukemia) | TGI (NCI-H460 lung) | TGI (PC-3 prostate) | TGI (RPMI-8226 leukemia) | TGI (SW-620 colon) | GI50 (CAKI-1 renal) | GI50 (HCT-116 colon) | GI50 (HL-60(TB) leukemia) | GI50 (MDA-MB-435) | GI50 (MOLT-4 leukemia) | GI50 (NCI-H460 lung) | GI50 (PC-3 prostate) | GI50 (RPMI-8226 leukemia) | GI50 (SW-620 colon)
Nc1nc(N)c2c(n1)CCC(S(=O)(=O)c1ccc3ccccc3c1)C2 (stereo not given) | > 100 µM | > 100 µM | 23.6 µM | 5.05 µM | 77.6 µM | > 100 µM | 27.2 µM | > 67 µM | > 100 µM | > 84.4 µM | > 100 µM | – | – | – | – | – | – | – | – | –
C=CC(=O)N1CCC[C@@H](n2nc(-c3ccc(Oc4ccccc4)cc3)c3c(N)ncnc32)C1 | > 10 µM | > 10 µM | > 10 µM | > 10 µM | > 10 µM | > 10 µM | > 10 µM | > 10 µM | > 10 µM | > 10 µM | > 10 µM | > 6.12 µM | > 10 µM | > 5.51 µM | > 10 µM | > 5.29 µM | > 10 µM | > 10 µM | > 7.41 µM | > 10 µM
O=c1/c(=C\c2ccc(Br)cc2)sc2n1C(c1ccc(Br)cc1)C1=C(N=2)c2ccc3ccccc3c2OCC1 (stereo not given) | – | > 100 µM | > 100 µM | > 100 µM | > 100 µM | > 100 µM | > 100 µM | > 100 µM | > 100 µM | > 100 µM | > 100 µM | – | > 100 µM | > 100 µM | > 100 µM | > 100 µM | > 100 µM | > 100 µM | > 100 µM | > 100 µM
O=C(Nc1cccc(-n2cc(-c3ccncc3)c(-c3ccc(Cl)c(O)c3)n2)c1)Nc1ccc(Cl)c(Cl)c1 | 14.3 µM | 5.73 µM | > 32.5 µM | 0.785 µM | 3.15 µM | 6.05 µM | > 32.5 µM | 3.57 µM | > 32.5 µM | > 32.5 µM | > 32.5 µM | 1.11 µM | 1.19 µM | 0.515 µM | 1.1 µM | 1.38 µM | 0.993 µM | 0.834 µM | 1.03 µM | 1.46 µM
c1ccc(CC(Nc2cccnc2)c2ccccc2)cc1 (stereo not given) | > 100 µM | 30.1 µM | 50.1 µM | – | 95.2 µM | 64.4 µM | 47.7 µM | 52.9 µM | 76.9 µM | 56.5 µM | > 100 µM | – | – | – | – | – | – | – | – | –
CC1[C@@H]2CC=C3[C@H]4CCC5Cc6nc7c(nc6C[C@@]5(C)C4CC(=O)[C@]32CO[C@]12OC(C)(C)CC2O)CC1CC[C@@H]2C3=C[C@H]4O[C@@]5(O[C@@](C)(CO)C[C@@H]5O)C(C)[C@@]4(O)[C@]3(C)[C@@H](O)CC2[C@]1(C)C7 (stereo not given in full) | – | 0.0837 µM and 0.532 µM | – | 0.000112 µM | 0.00137 µM | 0.0168 µM | 0.00156 µM and 0.00157 µM | 0.013 µM and 0.116 µM | 0.0274 µM | 0.000261 µM and < 0.000365 µM | 0.0262 µM and 0.0526 µM | – | 0.000846 µM and 0.00281 µM | 0.000355 µM and 0.000365 µM | 0.00111 µM | 0.000203 µM and 0.000365 µM | 0.000268 µM and 0.000365 µM | 0.000287 µM | 0.000106 µM and < 0.000365 µM | 0.000982 µM and 0.00204 µM
Cc1cnc(-c2ccc(-c3ccc(NC(=O)Nc4c(F)cc(F)cc4F)cc3F)c3c2C(=O)NC3)[nH]1 | 27.5 µM | 2.8 µM and 2.71 µM | 12.9 µM and 16.9 µM | 0.351 µM and 1.07 µM | 5.19 µM and 13.5 µM | 4.29 µM | 13.1 µM and 18.1 µM | 2.75 µM | 3.82 µM and 30.1 µM | 6.02 µM and > 33 µM | 2.19 µM | 1.74 µM | 0.307 µM and 1.03 µM | 1.1 µM and 0.946 µM | 0.483 µM | 0.0686 µM and 0.212 µM | 0.989 µM | 1.41 µM and 2.57 µM | 1.02 µM and 0.715 µM | 0.43 µM
CC(=O)ON=C1C=CC(=C(C#N)c2ccccc2)C=C1 | 2.71 µM | 11.5 µM | 4.87 µM | 3.51 µM | > 31.3 µM | 2.28 µM | > 100 µM | – | 12.3 µM | 2.94 µM | 7.76 µM | 0.396 µM | 0.283 µM | 1.11 µM | 0.283 µM | 2.86 µM | 1.51 µM | 0.476 µM | 0.428 µM | 0.452 µM
CC(C)C1=CC2=C(C(=O)C1=O)C13CCCC(C)(C)C1CC2OC3=O (stereo not given) | 44.1 µM | 33.2 µM | 36.3 µM | – | > 100 µM | 43.2 µM | 32.7 µM | 71.9 µM | 63.2 µM | 39.7 µM | 35.2 µM | – | – | – | – | – | – | – | – | –
CC/C(=C(/c1ccc(OCCN(C)C)cc1)c1ccc(OC(=O)CCCCCCCCC(=O)c2c(C)[nH]c(/C=C3\N=C(c4ccc[nH]4)C=C3OC)c2C)cc1)c1ccccc1 | > 100 µM | 21.8 µM | > 100 µM | 4.74 µM | 85 µM | > 100 µM | > 100 µM | > 100 µM | > 100 µM | > 100 µM | 14 µM | 7 µM | 3.36 µM | 12.3 µM | 4.63 µM | 5.13 µM | 4.26 µM | 5.86 µM | 3.75 µM | 3.72 µM
